Measurements as given in ChEMBL document CHEMBL1909046, “DrugMatrix in vitro pharmacology data”.

Legend:
[1] = biological target: Beta-3 adrenergic receptor (Homo sapiens, UniProt P13945); assay: DRUGMATRIX: Adrenergic beta3 radioligand binding (ligand: [125I] Cyanopindolol); type: cell membranes, Membrane; conditions: hek293; Not Active = under 50% inhibition at 10 µM
Substance-P receptor = Substance-P receptor (Homo sapiens, UniProt P25103); type: cell membranes, Membrane; conditions: cho; further: in other assays of this panel Not Active means under 50% inhibition at 10 µM
Chain of Substance-P receptor (P25103 whole entry): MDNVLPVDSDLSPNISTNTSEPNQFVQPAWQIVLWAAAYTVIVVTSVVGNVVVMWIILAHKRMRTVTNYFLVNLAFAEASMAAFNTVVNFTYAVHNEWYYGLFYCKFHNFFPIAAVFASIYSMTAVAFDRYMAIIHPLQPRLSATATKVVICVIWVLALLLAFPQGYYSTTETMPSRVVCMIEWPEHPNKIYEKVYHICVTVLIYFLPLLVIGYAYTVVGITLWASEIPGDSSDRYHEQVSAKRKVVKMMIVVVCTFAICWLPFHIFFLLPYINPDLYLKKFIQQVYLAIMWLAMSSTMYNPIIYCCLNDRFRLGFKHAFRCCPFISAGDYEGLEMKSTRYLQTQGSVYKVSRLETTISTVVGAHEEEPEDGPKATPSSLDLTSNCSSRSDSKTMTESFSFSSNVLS

[2] = biological target: T1, Vasoactive intestinal polypeptide receptor 1 (Homo sapiens, UniProt P32241); type: cell membranes, Membrane; conditions: ht-29; further: in other assays of this panel Not Active means under 50% inhibition at 10 µM
T1 sequence (P32241 whole entry): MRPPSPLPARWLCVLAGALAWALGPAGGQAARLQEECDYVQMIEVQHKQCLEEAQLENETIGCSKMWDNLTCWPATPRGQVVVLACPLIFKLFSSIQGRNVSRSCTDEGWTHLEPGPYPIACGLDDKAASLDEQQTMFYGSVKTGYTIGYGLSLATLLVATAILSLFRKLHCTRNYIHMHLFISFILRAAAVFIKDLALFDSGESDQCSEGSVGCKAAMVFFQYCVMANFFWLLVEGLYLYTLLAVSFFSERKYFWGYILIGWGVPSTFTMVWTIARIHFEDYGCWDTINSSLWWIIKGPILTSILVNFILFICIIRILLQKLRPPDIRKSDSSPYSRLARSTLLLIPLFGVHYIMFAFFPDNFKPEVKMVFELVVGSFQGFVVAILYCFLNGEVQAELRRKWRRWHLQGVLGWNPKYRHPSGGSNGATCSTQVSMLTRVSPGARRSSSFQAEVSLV

[3] = biological target: T2, 3-hydroxy-3-methylglutaryl-coenzyme A reductase (Homo sapiens, UniProt P04035); set-up: species or system Escherichia coli;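 further: enzyme inhibition assay of HMG-CoA reductase using radiolabeled [14C]HMG-CoA as substrate; in other assays of this panel Not Active means under 50% inhibition at 10 µM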
T2 sequence (P04035 whole entry): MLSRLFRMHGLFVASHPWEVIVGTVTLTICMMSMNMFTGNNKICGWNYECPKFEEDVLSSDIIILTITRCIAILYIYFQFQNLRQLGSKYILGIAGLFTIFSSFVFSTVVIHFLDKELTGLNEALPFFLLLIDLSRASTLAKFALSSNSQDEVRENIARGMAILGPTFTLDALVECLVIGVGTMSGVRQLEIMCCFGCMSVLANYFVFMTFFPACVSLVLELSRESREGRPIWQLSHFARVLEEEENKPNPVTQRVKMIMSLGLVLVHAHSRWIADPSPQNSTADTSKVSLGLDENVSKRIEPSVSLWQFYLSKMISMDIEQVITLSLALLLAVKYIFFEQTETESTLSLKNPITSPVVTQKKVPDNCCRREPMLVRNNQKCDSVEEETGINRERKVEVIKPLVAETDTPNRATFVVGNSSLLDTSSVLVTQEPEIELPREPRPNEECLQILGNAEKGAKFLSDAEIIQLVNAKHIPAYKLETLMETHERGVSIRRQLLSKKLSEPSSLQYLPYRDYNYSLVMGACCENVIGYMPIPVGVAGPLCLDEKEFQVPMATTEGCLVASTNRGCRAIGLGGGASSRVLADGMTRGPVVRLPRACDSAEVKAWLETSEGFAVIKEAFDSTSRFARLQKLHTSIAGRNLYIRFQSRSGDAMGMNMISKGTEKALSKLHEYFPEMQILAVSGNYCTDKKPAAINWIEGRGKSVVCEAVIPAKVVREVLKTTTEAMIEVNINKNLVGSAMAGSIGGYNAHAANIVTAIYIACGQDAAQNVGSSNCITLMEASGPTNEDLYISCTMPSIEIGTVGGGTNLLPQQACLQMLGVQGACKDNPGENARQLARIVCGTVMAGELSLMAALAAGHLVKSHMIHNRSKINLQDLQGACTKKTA

Leukotriene C4 synthase = biological target: T3, Leukotriene C4 synthase (Cavia porcellus, UniProt A6XA80); type: tissue-based, Lung;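 further: enzyme inhibition assay of leukotriene C4 synthase, using LTA4 as the substrate; in other assays of this panel Not Active means under 50% inhibition at 10 µM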
T3 sequence (A6XA80 whole entry): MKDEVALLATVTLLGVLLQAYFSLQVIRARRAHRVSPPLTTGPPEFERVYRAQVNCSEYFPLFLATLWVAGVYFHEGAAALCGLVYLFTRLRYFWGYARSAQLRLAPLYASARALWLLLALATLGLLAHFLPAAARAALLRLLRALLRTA

[4] = biological target: cGMP-specific 3',5'-cyclic phosphodiesterase (Homo sapiens, UniProt O76074); assay: DRUGMATRIX: Phosphodiesterase PDE5 enzyme inhibition (substrate: [3H]cGMP + cGMP); type: tissue-based; conditions: platelet; Not Active = under 50% inhibition at 10 µM
[5] = biological target: Matrix metalloproteinase-9 (Homo sapiens, UniProt P14780); assay: biochemical; type: cell-based
Chain of Matrix metalloproteinase-9 (P14780 whole entry): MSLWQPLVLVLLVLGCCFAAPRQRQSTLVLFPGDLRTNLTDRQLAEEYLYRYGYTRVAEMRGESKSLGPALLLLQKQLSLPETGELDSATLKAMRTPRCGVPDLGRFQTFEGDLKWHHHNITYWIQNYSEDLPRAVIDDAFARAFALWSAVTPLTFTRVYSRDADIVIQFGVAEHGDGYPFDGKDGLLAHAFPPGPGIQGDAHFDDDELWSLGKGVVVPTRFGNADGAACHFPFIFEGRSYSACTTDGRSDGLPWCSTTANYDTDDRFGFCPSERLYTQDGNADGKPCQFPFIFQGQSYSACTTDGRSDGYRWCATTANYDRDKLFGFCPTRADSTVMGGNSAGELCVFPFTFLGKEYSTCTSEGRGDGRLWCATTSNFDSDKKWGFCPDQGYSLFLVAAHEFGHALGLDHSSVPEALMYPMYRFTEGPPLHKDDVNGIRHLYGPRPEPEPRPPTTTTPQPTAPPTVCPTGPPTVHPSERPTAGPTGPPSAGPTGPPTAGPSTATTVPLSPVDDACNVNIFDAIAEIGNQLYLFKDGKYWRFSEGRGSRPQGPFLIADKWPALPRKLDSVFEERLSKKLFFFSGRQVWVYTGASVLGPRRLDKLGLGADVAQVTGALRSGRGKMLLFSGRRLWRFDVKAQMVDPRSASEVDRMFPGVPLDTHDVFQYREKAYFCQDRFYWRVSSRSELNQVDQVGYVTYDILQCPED

[6] = biological target: Tyrosine-protein kinase Lck (Homo sapiens, UniProt P06239); assay: DRUGMATRIX: Protein Tyrosine Kinase, LCK enzyme inhibition (substrate: Poly(Glu:Tyr)); type: cell-based, Insect cells; conditions: insect cells; Not Active = under 50% inhibition at 10 µM
Chain of Tyrosine-protein kinase Lck (P06239 whole entry): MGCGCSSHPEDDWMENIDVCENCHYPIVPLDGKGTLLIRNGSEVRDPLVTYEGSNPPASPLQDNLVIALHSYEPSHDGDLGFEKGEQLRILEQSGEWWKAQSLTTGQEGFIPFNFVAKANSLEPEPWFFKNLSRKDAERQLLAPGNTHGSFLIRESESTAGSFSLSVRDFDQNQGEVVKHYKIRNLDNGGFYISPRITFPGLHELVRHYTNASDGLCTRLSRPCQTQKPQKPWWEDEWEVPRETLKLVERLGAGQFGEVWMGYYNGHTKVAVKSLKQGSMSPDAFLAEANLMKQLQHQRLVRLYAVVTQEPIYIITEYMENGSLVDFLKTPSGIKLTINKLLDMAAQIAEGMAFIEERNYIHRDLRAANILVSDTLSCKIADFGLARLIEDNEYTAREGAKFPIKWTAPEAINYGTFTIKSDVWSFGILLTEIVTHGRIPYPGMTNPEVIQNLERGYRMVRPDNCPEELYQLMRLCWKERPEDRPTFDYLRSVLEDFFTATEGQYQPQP

Measured: IC50

Chain of Beta-3 adrenergic receptor (P13945 whole entry): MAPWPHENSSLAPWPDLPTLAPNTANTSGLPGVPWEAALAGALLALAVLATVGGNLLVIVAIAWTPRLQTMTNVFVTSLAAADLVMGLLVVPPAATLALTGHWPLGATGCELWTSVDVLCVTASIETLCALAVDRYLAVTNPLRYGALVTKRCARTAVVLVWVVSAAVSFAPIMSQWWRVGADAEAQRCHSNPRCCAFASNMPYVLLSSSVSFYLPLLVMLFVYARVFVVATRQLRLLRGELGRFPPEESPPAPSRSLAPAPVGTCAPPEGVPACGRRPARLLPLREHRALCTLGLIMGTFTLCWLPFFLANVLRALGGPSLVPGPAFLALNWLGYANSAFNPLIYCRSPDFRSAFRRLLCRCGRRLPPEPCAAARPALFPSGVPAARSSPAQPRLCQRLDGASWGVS

CC1(C)O[C@@H]2C[C@H]3[C@@H]4C[C@H](F)C5=CC(=O)C=C[C@]5(C)[C@@]4(F)[C@@H](O)C[C@]3(C)[C@]2(C(=O)CO)O1 [FLUOCINOLONE ACETONIDE]
Not Active: [1] | Substance-P receptor | [2] | [3] | Leukotriene C4 synthase | [4] | [5] | [6]

CC1(C)O[C@@H]2C[C@H]3[C@@H]4C[C@H](F)C5=CC(=O)CC[C@]5(C)[C@H]4[C@@H](O)C[C@]3(C)[C@]2(C(=O)CO)O1 [FLURANDRENOLIDE]
Not Active: [1] | Substance-P receptor | [2] | [3] | Leukotriene C4 synthase | [4] | [5] | [6]

CN(C)c1ccc(C(=C2C=CC(=[N+](C)C)C=C2)c2ccc(N(C)C)cc2)cc1.[Cl-] [GENTIAN VIOLET]
Not Active: [1] | Substance-P receptor | [2] | [3] | Leukotriene C4 synthase | [4] | [5] | [6]

Cc1ccc(S(=O)(=O)NC(=O)NN2CC3CCCC3C2)cc1 (configuration not stated) [GLICLAZIDE]
Not Active: [1] | Substance-P receptor | [2] | [3] | Leukotriene C4 synthase | [4] | [5] | [6]

NC(=O)NO [HYDROXYUREA]
Not Active: [1] | Substance-P receptor | [2] | [3] | Leukotriene C4 synthase | [4] | [5] | [6]

CC(C)Cc1ccc(C(C)C(=O)O)cc1 (configuration not stated) [IBUPROFEN]
Not Active: [1] | Substance-P receptor | [2] | [3] | Leukotriene C4 synthase | [4] | [5] | [6]

COc1ccc2c(c1)c(CC(=O)O)c(C)n2C(=O)c1ccc(Cl)cc1 [INDOMETHACIN]
Not Active: [1] | Substance-P receptor | [2] | [3] | Leukotriene C4 synthase | [4] | [5] | [6]

CCc1c2c(nc3ccc(OC(=O)N4CCC(N5CCCCC5)CC4)cc13)-c1cc3c(c(=O)n1C2)COC(=O)[C@]3(O)CC [IRINOTECAN]
Not Active: [1] | Substance-P receptor | [2] | [3] | Leukotriene C4 synthase | [4] | [5] | [6]

CC(C(=O)O)c1cccc(C(=O)c2ccccc2)c1 (configuration not stated) [KETOPROFEN]
Not Active: [1] | Substance-P receptor | [2] | [3] | Leukotriene C4 synthase | [4] | [5] | [6]

Nc1ccn([C@@H]2CS[C@H](CO)O2)c(=O)n1 [LAMIVUDINE]
Not Active: [1] | Substance-P receptor | [2] | [3] | Leukotriene C4 synthase | [4] | [5] | [6]

O=S(=O)([O-])CCS.[Na+] [MESNA]
Not Active: [1] | Substance-P receptor | [2] | [3] | Leukotriene C4 synthase | [4] | [5] | [6]

C#C[C@]1(O)CC[C@H]2[C@@H]3CCc4cc(OC)ccc4[C@H]3CC[C@@]21C [MESTRANOL]
Not Active: [1] | Substance-P receptor | [2] | [3] | Leukotriene C4 synthase | [4] | [5] | [6]

CC(=O)Nc1cccc(O)c1 [METACETAMOL]
Not Active: [1] | Substance-P receptor | [2] | [3] | Leukotriene C4 synthase | [4] | [5] | [6]

Cc1ncc([N+](=O)[O-])n1CCO [METRONIDAZOLE]
Not Active: [1] | Substance-P receptor | [2] | [3] | Leukotriene C4 synthase | [4] | [5] | [6]

CC(C)(C(=O)c1cccnc1)c1cccnc1 [METYRAPONE]
Not Active: [1] | Substance-P receptor | [2] | [3] | Leukotriene C4 synthase | [4] | [5] | [6]

Oc1ccc(OCc2ccccc2)cc1 [MONOBENZONE]
Not Active: [1] | Substance-P receptor | [2] | [3] | Leukotriene C4 synthase | [4] | [5] | [6]

CC(C)(Oc1ccc(C2CCCc3ccccc32)cc1)C(=O)O (configuration not stated) [NAFENOPIN]
Not Active: [1] | Substance-P receptor | [2] | [3] | Leukotriene C4 synthase | [4] | [5] | [6]

CC(C)[C@H]1CC[C@H](C(=O)N[C@H](Cc2ccccc2)C(=O)O)CC1 [NATEGLINIDE]
Not Active: [1] | Substance-P receptor | [2] | [3] | Leukotriene C4 synthase | [4] | [5] | [6]

CCN[C@@H]1C[C@H](N)[C@@H](O[C@H]2OC(CN)=CC[C@H]2N)[C@H](O)[C@H]1O[C@H]1OC[C@](C)(O)[C@H](NC)[C@H]1O [NETILMICIN]
Not Active: [1] | Substance-P receptor | [2] | [3] | Leukotriene C4 synthase | [4] | [5] | [6]

COC(=O)C1=C(C)NC(C)=C(C(=O)OCC(C)C)C1c1ccccc1[N+](=O)[O-] (configuration not stated) [NISOLDIPINE]
Not Active: [1] | Substance-P receptor | [2] | [3] | Leukotriene C4 synthase | [4] | [5] | [6]

CCOC(=O)C1=C(C)NC(C)=C(C(=O)OC)C1c1cccc([N+](=O)[O-])c1 (configuration not stated) [NITRENDIPINE]
Not Active: [1] | Substance-P receptor | [2] | [3] | Leukotriene C4 synthase | [4] | [5] | [6]

C#C[C@]1(OC(C)=O)CC[C@H]2[C@@H]3CCC4=CC(=O)CC[C@@H]4[C@H]3CC[C@@]21C [NORETHINDRONE ACETATE]
Not Active: [1] | Substance-P receptor | [2] | [3] | Leukotriene C4 synthase | [4] | [5] | [6]

COc1ccc2[nH]c([S+]([O-])Cc3ncc(C)c(OC)c3C)nc2c1 (configuration not stated) [OMEPRAZOLE]
Not Active: [1] | Substance-P receptor | [2] | [3] | Leukotriene C4 synthase | [4] | [5] | [6]

Cc1nccn1CC1CCc2c(c3ccccc3n2C)C1=O (configuration not stated) [ONDANSETRON]
Not Active: [1] | Substance-P receptor | [2] | [3] | Leukotriene C4 synthase | [4] | [5] | [6]
